Measurements: ChEMBL document CHEMBL1158611, “Trichoderins, novel aminolipopeptides from a marine sponge-derived Trichoderma sp., are active against dormant mycobacteria” (2010)
Converted amounts (≈) assume the structure as drawn. *1 amine or outer side, *2 acyl side, *3 side chain or, on linkers, in order; H or OH if unused. Where a SMILES comes first, the peptide text is derived from it. [ ]: non-standard residue; d: D form. The star is where a group is joined. X2 = CCC(=O)C[C@@H](O)C[C@@H](C)C[C@H](N[*:1])C(=O)[*:2]; X1 = CCC(=O)/C=C/C[C@@H](C)C[C@H](N[*:1])C(=O)[*:2]; Alaψ(CH2NMeCH2CH2OH) = C[C@@H](CN(C)CCO)N*; Decanoyl(2R-Me) = CCCCCCCC[C@@H](C)C(=O)*; Aib = CC(C)(N)C(=O)O

Columns and labels:
[1] = tested on: Mycobacterium tuberculosis; assay: Antimycobacterial activity against Mycobacterium bovis BCG under aerobic condition; type: functional; details: variant bovis BCG
[2] = tested on: Mycobacterium tuberculosis; assay: Antimycobacterial activity against Mycobacterium bovis BCG under dormancy-inducing hypoxic condition; type: functional; details: variant bovis BCG

NNC(=O)c1ccncc1 [ISONIAZID]
MIC [1]: 0.03 µg/mL (≈ 0.219 µM)
MIC [2]: > 100 µg/mL

CCCCCCCC[C@@H](C)C(=O)N1CCC[C@H]1C(=O)N[C@@H](C[C@H](C)C/C=C/C(=O)CC)C(=O)NC(C)(C)C(=O)NC(C)(C)C(=O)N[C@H](C(=O)N[C@H](C(=O)NC(C)(C)C(=O)NC(C)(C)C(=O)N[C@@H](C)CN(C)CCO)C(C)C)[C@@H](C)CC [TRICHODERIN A1] ({Decanoyl(2R-Me)}-P[X1][Aib][Aib]IV[Aib][Aib]-{Alaψ(CH2NMeCH2CH2OH)})
MIC [1]: 0.16 µg/mL (≈ 0.14 µM)
MIC [2]: 0.16 µg/mL (≈ 0.14 µM)

CCCCCCCC[C@@H](C)C(=O)N1CCC[C@H]1C(=O)N[C@@H](C[C@H](C)C[C@H](O)CC(=O)CC)C(=O)NC(C)(C)C(=O)NC(C)(C)C(=O)N[C@H](C(=O)N[C@H](C(=O)NC(C)(C)C(=O)NC(C)(C)C(=O)N[C@@H](C)CN(C)CCO)C(C)C)[C@@H](C)CC [TRICHODERIN A] ({Decanoyl(2R-Me)}-P[X2][Aib][Aib]IV[Aib][Aib]-{Alaψ(CH2NMeCH2CH2OH)})
MIC [1]: 0.02 µg/mL (≈ 0.0172 µM)
MIC [2]: 0.02 µg/mL (≈ 0.0172 µM)

CCCCCCCC[C@@H](C)C(=O)N1CCC[C@H]1C(=O)N[C@@H](C[C@H](C)C[C@H](O)CC(=O)CC)C(=O)NC(C)(C)C(=O)NC(C)(C)C(=O)N[C@H](C(=O)N[C@H](C(=O)NC(C)(C)C(=O)NC(C)(C)C(=O)N[C@@H](C)CN(C)CCO)C(C)C)C(C)C [TRICHODERIN B] ({Decanoyl(2R-Me)}-P[X2][Aib][Aib]VV[Aib][Aib]-{Alaψ(CH2NMeCH2CH2OH)})
MIC [1]: 0.02 µg/mL (≈ 0.0174 µM)
MIC [2]: 0.02 µg/mL (≈ 0.0174 µM)
